How the values were obtained:
B2R = biological target: T1, B2R (Homo sapiens, UniProt P30411); experiment: calcium imaging (Fura-2), BK response with B2R antagonists; type: cell-based; conditions: BK in presence of the B2R antagonist; for average peak of Ca2+ response: p<0.001 vs BK
T1 construct: endogenous in cells; host or cells: D54-MG / D54-MG-GFP human glioma cells
T1 sequence (P30411 1-391): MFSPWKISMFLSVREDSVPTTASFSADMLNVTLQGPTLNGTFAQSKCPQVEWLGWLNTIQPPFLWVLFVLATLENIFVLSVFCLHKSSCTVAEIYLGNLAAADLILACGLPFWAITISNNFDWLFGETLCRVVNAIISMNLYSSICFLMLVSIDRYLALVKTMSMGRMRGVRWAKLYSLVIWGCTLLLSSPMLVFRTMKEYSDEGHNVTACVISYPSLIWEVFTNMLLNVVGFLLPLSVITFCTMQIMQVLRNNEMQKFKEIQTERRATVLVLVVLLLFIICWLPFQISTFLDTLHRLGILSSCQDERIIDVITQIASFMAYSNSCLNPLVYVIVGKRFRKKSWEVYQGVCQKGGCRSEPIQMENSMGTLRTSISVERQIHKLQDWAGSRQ
Experimental: D54-MG cells were plated on 35-mm glass bottom dishes (MatTek, Corp., Ashland, Mass.) at ˜100×10^3 per dish and cultured for 2 days. pTRIPZ transfected cells, after stable selection, were plated at a density of ˜20×10^3 per dish and treated with […] doxycycline for 4 to 5 days to allow for sufficient protein knockdown. All cells were loaded in serum-free culture medium for 45 min with the ratiometric Ca^2+ dye Fura-2-acetoxymethylester (5 μmol/L; TEFLABS, Austin, Tex.) reconstituted in 20% wiv pluronic acid in DMSO (Invitrogen, Carlsbad, Calif.). Cells were rinsed with serum-free medium and allowed to rest in 7% serum-containing medium for 45 min at 37° C. The glass-bottom dishes were placed in an environmental chamber mounted on an inverted microscope. Cells were allowed to equilibrate in the chamber for 15 min before calcium images were collected. Following equilibration, recordings were obtained with an Olympus Disk Spinning Unit (DSU) fluorescent imaging microscope where cells were alternately excited at 340 and 380 nm using an x-cite illumination light source. Emitted light was collected at >520 nm. Images were digitized online using Slidebook 4.2 software (Intelligent Imaging Innovations, Denver, Colo.), and 340:380 nm ratios were obtained every 15 seconds. Following a 5 minute baseline recording every 15 seconds, BK was applied to the cells and imaging continued every 15 seconds for 30 or 60 minutes. In a subset of experiments, BK antagonists, HOE-140 and Bradyzide were applied to the cells. These experiments were repeated at least three times and data were pooled for statistical analysis.
Glioma cells respond to environmental clues as they invade the brain. It has been previously shown that the exposure of glioma cells to certain neuroligands induces increase in intracellular calcium concentrations. In this series of experiments, we investigated Ca^2+-responses in cultured D54-MG glioma cells, after addition of acetylcholine (ACh), ATP or BK. Glioma cells were loaded with the ratiometric Ca^2+-dye FURA2-AM, and imaged over 30 min.

[1] = test system: MMP gelatinase activity of D54 MG cells; experiment: in-situ zymography of gelatinolytic MMP activity (DQ gelatin); type: cell-based, human; conditions: BK plus B2R antagonist
Experimental: To assess gelatinolytic MMP activity we used in situ zymography, as described previously (Deshane J et al, 2003). Briefly, after cell nuclei were labeled with Hoechst dye, fluorescein isothiocyanate-labeled DQ gelatin with BK+/−antagonists (Molecular Probes, Eugene, Oreg.) was applied overnight on the coverslips plated with D54 MG cells. Coverslips where drugs were omitted were processed in parallel and used as controls. At the end of the incubation period, cells were photographed by fluorescence microscopy with a Zeiss Axiovert 200 M microscope using a 20× objective. Quantification of fluorescent staining intensity after background subtraction was done using Slidebook 4.2 software (Intelligent Imaging Innovations, Denver, Colo.). Experiments were repeated three times.
To investigate the hypothesis that BK promotes glioma migration in vitro, we used Transwell migration assay which conveniently permit examination of cell migration across a membrane barrier with 8 μm pores towards vitronectin, a chemo-attractant extracellular matrix protein. This frequently used assay allows a quantitative study of drug effects with regards to drugs acting as motogens or as chemo-attractants. D54-MG-GFP glioma cells were allowed to migrate for 5 h in the presence/absence of neuroligands. […] Next, we tested glioma cell migration in various BK concentrations. […]

D54-MG-GFP glioma cells = experiment: Transwell migration assay; type: cell-based, human; conditions: antagonist 1 μM with BK, 5 h
Experimental: The day before the experiment was performed, ˜70% confluent dishes of cells were prepared. Transwell migration Fluoroblock cell culture inserts (BD Biosciences, San Jose, Calif.) with 8 μm pores were coated overnight with Vitronectin (BD Biosciences, San Jose, Calif.) at a concentration of 5 μg/ml in PBS. The following day, inserts were blocked with 1% fatty acid-free bovine serum albumin for 1 h. Inserts were then washed two times in PBS, and 400 μl of Migration Assay Buffer (MAB, 0.1% fatty acid-free bovine serum albumin in serum-free media) was added to the bottom of each well. Cells were rinsed once in PBS and were lifted off the dish by the addition of 0.5 mm EGTA. Cells were rinsed twice by centrifugation and resuspended in MAB and counted. Forty thousand cells were plated on the top of each filter and allowed to adhere for 30 min before drug was added. When BK+/−antagonists was added to the filters, it was added only to the bottom of the filter for chemotaxis. For migration assay, D54-EGFP MG cells were allowed to migrate for 5 hours, washed with PBS, fixed with 4% paraformaldehyde 15 minutes at room temperature, washed thrice and counterstained with DAPI for 5 minutes at room temperature. Invasion assay was performed similarly. Matrigel cell cultured inserts (BD Biosciences, San Jose, Calif.) with 8 μm pores were pretreated Vitronectin and blocked as described above. […] The number of nuclei that migrated through pores was counted. All counts per treatment were averaged and SE values were calculated. […]
To investigate the hypothesis that BK promotes glioma migration in vitro, we used Transwell migration assay which conveniently permit examination of cell migration across a membrane barrier with 8 μm pores towards vitronectin, a chemo-attractant extracellular matrix protein. This frequently used assay allows a quantitative study of drug effects with regards to drugs acting as motogens or as chemo-attractants. […]

Row | Structure (SMILES) | cells responded / cells imaged (B2R) | average peak of Ca2+ response (B2R) | MMP activity (fluorescence of DQ gelatin) [1] | BK-induced increase in cells migrating through the pores (D54-MG-GFP glioma cells)
1 | CN(C)CCN(C)CCNC(=O)[C@@H]1CCCN1S(=O)(=O)c1ccc(NNC(=S)NC(c2ccccc2)c2ccccc2)c([N+](=O)[O-])c1 [Bradyzide] | 156/300 | 0.15±0.02 | reduction of the fluorescence back to control levels | eliminated
2 | N=C(N)NCCCC(NC(=O)[C@H](N)CCCNC(=N)N)C(=O)N1CCC[C@H]1C(=O)N1C[C@H](O)C[C@H]1C(=O)NCC(=O)N[C@@H](Cc1cccs1)C(=O)N[C@@H](CO)C(=O)N1Cc2ccccc2C[C@@H]1C(=O)N1C2CCCCC2C[C@H]1C(=O)N[C@H](CCCNC(=N)N)C(=O)O (stereo partly drawn) [HOE-140, D-Arg-[Hyp^3, Thi^5, D-Tic^7, Oic^8]bradykinin] | 22/162 | 0.15±0.01 | reduction of the fluorescence back to control levels | eliminated

Reference: patent US20140248291A1, “Modulation of Cellular Migration” (THE UAB RESEARCH FOUNDATION, priority 2011, published 2014)
